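1) Cells in 96-well plates. 2) Compound, 48 h, 5 concentrations. 3) Linear interpolation between surrounding doses. 4) Unreached endpoint = highest concentration. GI50 = concentration required for 50% inhibition of growth.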 Activity calls are given as the source filed them. Rule as the data show it: active = GI50 up to about 1.1 µM and inactive = higher.
Experiments:
Assay in all cases: NCI-60 cell line screen, 48 h
[1] = tested on: SNB-75
[2] = tested on: HL-60
[3] = tested on: SNB-19
[4] = tested on: UACC-257
[5] = tested on: SF-268
[6] = tested on: SK-OV-3
[7] = tested on: SF-539
[8] = tested on: SK-MEL-5
[9] = tested on: RXF 393
[10] = tested on: CAKI-1
[11] = tested on: LOX IMVI
[12] = tested on: HCT-116
[13] = tested on: A498
[14] = tested on: NCI-H226

Measured: GI50

COc1cc2ccnc3c(=C(SC)SC)c(=O)c(c1OC)c23
inactive: [1] 10.2 µM | [2] 2.26 µM | [3] 53.2 µM | [4] 13.6 µM | [5] 22.2 µM | [6] > 100 µM | [7] 17.4 µM | [8] > 10 µM | [9] 13 µM | [10] 10.3 µM | [11] 2.87 µM

CN(C)CN(C)c1nc(N(C)C)nc(N(C)C)n1
inactive: [1] > 100 µM | [2] > 100 µM | [12] > 100 µM | [3] > 100 µM | [4] > 100 µM | [5] > 100 µM | [6] > 100 µM | [7] > 100 µM | [13] > 100 µM | [8] > 100 µM | [9] 61.1 µM | [10] > 100 µM | [11] > 100 µM

O=C(O)c1ccccc1Cc1ccco1
inactive: [1] > 100 µM | [12] > 100 µM | [3] > 100 µM | [4] > 100 µM | [5] > 100 µM | [14] > 100 µM | [6] > 100 µM | [7] > 100 µM | [13] > 100 µM | [8] > 100 µM | [9] > 100 µM | [10] > 100 µM

CC(=O)NC(CCCNC(=O)NCCCl)C(=O)NCc1ccccc1 (stereo unspecified)
inactive: [1] > 100 µM | [2] > 100 µM | [12] > 100 µM | [3] > 100 µM | [4] > 100 µM | [5] > 100 µM | [14] > 100 µM | [7] > 100 µM | [8] > 100 µM | [9] > 100 µM | [10] > 100 µM

CN1C/C(=C\C=C\c2ccccc2)C(=O)/C(=C/C=C/c2ccccc2)C1
inactive: [1] > 100 µM | [12] > 100 µM | [3] 39.6 µM | [4] > 100 µM | [5] > 100 µM | [14] > 100 µM | [6] > 100 µM | [7] > 100 µM | [13] > 100 µM | [8] > 100 µM | [9] > 100 µM | [10] > 100 µM | [11] > 100 µM

OC(c1ccccc1)(c1ccccc1)c1ccncc1
inactive: [1] 36.6 µM | [2] > 100 µM | [12] > 100 µM | [3] > 100 µM | [4] > 100 µM | [5] > 100 µM | [14] > 100 µM | [6] > 100 µM | [7] 59.4 µM | [8] > 100 µM | [9] > 100 µM | [10] > 100 µM | [11] > 100 µM

COc1ccc(CC2c3c(cc(OC)c(OC)c3OC)CCN2C)cc1OC (stereo unspecified)
inactive: [1] > 100 µM | [12] > 100 µM | [3] > 100 µM | [4] > 100 µM | [5] > 100 µM | [7] > 100 µM | [13] > 100 µM | [8] > 100 µM | [10] > 100 µM

C1=CC=C2NCCCCCC/N=C3\C=CC=CC=C3NCCc3cccc(c3)CC/N=C/2C=C1
inactive: [1] 21.3 µM | [2] 5.43 µM | [12] 6.27 µM | [3] 26.5 µM | [4] 22.8 µM | [5] 31.7 µM | [14] 32.5 µM | [6] 25.5 µM | [7] 10.8 µM | [9] 13.4 µM | [10] 33.3 µM | [11] 4.63 µM

COC(=O)c1csnn1
inactive: [2] > 100 µM | [12] > 100 µM | [3] > 100 µM | [4] > 100 µM | [5] > 100 µM | [14] > 100 µM | [6] > 100 µM | [7] > 100 µM | [8] > 100 µM | [11] > 100 µM

N#Cc1nc(Nc2cccc3ccccc23)sc1N
inactive: [1] 42.8 µM | [2] 20.7 µM | [12] 32.1 µM | [3] 38.8 µM | [4] 15.8 µM | [5] 20.4 µM | [14] 41.8 µM | [6] 38 µM | [7] 23.2 µM | [10] 28.7 µM | [11] 17.3 µM

COc1ccc2nc3cc(Cl)ccc3c(Sc3ccccc3[N+](=O)[O-])c2c1
inactive: [1] 16.9 µM | [12] > 100 µM | [3] > 100 µM | [4] > 100 µM | [5] > 100 µM | [14] 17.7 µM | [6] 58.1 µM | [7] 58.1 µM | [13] > 100 µM | [8] > 100 µM | [9] 49.5 µM | [10] > 100 µM | [11] > 100 µM

Cc1ccc(SC2C(C)(C)N(C(C)C)P2(=O)N(C(C)C)C(C)C)cc1 (stereo unspecified)
inactive: [1] > 100 µM | [2] 14.7 µM | [12] 26.4 µM | [3] 51.5 µM | [4] 16.9 µM | [5] 52 µM | [14] > 100 µM | [6] > 100 µM | [7] > 88.9 µM | [13] > 100 µM | [8] 22.4 µM | [10] 47 µM | [11] 28 µM

Reference: ChEMBL document CHEMBL1201862, “PubChem BioAssay data set” (2004)
